Source: publication PMC4343023, “Selectivity of odorant-binding proteins from the southern house mosquito tested against physiologically relevant ligands” (Frontiers in Physiology, 2015)
Like-named read-outs stand apart in the source and are kept apart here.

Experiments:
Assay in all cases: biochemical
Type in all cases: binding
Details in all cases: for Int (fluorescence emission): residual NPN fluorescence, normalized to 100 prior to ligand, screen at 2–20 μM ligand
CquiOBP5 = CquiOBP5 (Culex quinquefasciatus, UniProt C7BDZ9)
Sequence of CquiOBP5 (C7BDZ9 entry or part of it): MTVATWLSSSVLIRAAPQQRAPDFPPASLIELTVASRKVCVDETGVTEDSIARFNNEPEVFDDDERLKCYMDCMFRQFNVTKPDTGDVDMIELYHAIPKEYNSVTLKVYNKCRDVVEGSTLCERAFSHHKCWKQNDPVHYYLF
Description: (§1) Binding affinity (Ban et al., [2002]) was tested with a panel of 34 compounds, including attractants, a mosquito oviposition pheromone, repellents, terpenoids and other putative mosquito attractants or repellents. Unless otherwise specified, they were purchased from Sigma-Aldrich/Fluka/Acros (St. Louis, MO). Repellents: DEET (N,N-diethyl-3-methylbenzamide), PMD (p-mentan-3,8-diol) (Bedoukian Research, Inc.), picaridin (butan-2-yl 2-(2-hydroxyethyl)piperidine-1-carboxylate), IR3535 (ethyl 3-[acetyl(butyl)amino]propanoate) (gifts from Dr. Kamal Chauhan, USDA, ARS, Beltsville), (±)-citronellal, and ethyl 2-phenylacetate. Oviposition attractants: (5R,6S)-6-acetoxy-5-hexadecanolide, MOP (Bedoukian Research, Inc.), skatole, indole, 4-methylphenol, and 4-ethylphenol. Human derived compounds: nonanal, 6-methyl-5-hepten-2-one (sulcatone). Terpenoids and other putative attractants/repellents: linalool, linalool oxide, eucalyptol, camphor, fenchone, thujone, geranyl acetate, eugenol, (Z)-3-hexenyl acetate, 1-octen-3-ol, 1-octyn-3-ol, 3-octanol, 1-hexanol, methylcyclohexanol, methyl salicylate, cyclohexanone, acetophenone, benzaldehyde, 3,5-dimethoxybenzene, 1,2-dimethoxybenzene, and 2-phenylethanol.
(§2) Fluorescence spectra were recorded in a right angle configuration on a spectrofluorimeter (RF-5301, Shimadzu, Kyoto, Japan) at room temperature using a 1 cm light path fluorimeter quartz cuvette. Slit widths of 10 nm were selected for both excitation and emission. N-phenyl-1-naphthylamine (NPN, or 1-NPN) (Ban et al., [2002]) was dissolved in methanol to yield a 1 mM stock solution. The binding affinity for NPN was determined by adding aliquots of NPN into a 10 μg/ml (microgram) protein sample. NPN was excited at 337 nm and emission spectra were recorded at high speed scanning between 350 and 500 nm. All ligands used in competition experiments were dissolved in spectrophotometric grade methanol. Binding data were collected in three independent measurements. Bound ligand was evaluated from fluorescence intensity assuming that the protein was 100% active, with a stoichiometry of 1:1 (protein: ligand) at saturation. The KNPN values were estimated using Prism 5 (GraphPad Software, Inc., La Jolla, CA) by non-linear regression for a unique site of binding. The curves were linearized using Scatchard plots. Dissociation constants of the competitors were calculated according to Campanacci et al. ([2001]) from the corresponding IC50 values in the equation: Kdiss = [IC50]/1+[NPN]/KNPN, where [NPN] is the free concentration of NPN and KNPN is the dissociation constant of the complex protein/NPN.

CquiOBP2 = CquiOBP2 (Culex quinquefasciatus, UniProt C7BDZ6)
Sequence of CquiOBP2 (C7BDZ6 entry or part of it): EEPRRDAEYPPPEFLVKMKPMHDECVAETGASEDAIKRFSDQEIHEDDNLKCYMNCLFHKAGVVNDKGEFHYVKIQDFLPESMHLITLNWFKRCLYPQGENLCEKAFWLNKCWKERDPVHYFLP
Description: as §1, §2

CquiOBP1 = CquiOBP1 (Culex quinquefasciatus, UniProt Q8T6I2)
Sequence of CquiOBP1 (Q8T6I2 entry or part of it): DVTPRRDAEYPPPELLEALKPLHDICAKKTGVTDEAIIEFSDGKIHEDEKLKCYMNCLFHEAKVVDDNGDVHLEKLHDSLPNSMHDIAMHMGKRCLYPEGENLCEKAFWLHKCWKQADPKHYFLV
Description: as §1, §2

[1] = CquiOBP5, NPN displacement titration, read-out: IC50
[2] = CquiOBP5, calculated from IC50 of NPN displacement, read-out: Kd
[3] = CquiOBP2, NPN displacement titration, read-out: IC50
[4] = CquiOBP2, calculated from IC50 of NPN displacement, read-out: Kd
[5] = CquiOBP1, NPN displacement titration, read-out: IC50
[6] = CquiOBP1, calculated from IC50 of NPN displacement, read-out: Kd

| Structure (SMILES) | IC50 (CquiOBP5; [1]) [µM] | Kd (CquiOBP5; [2]) [µM] | Int (fluorescence emission) (CquiOBP5; CquiOBP5) | IC50 (CquiOBP2; [3]) [µM] | Kd (CquiOBP2; [4]) [µM] | Int (fluorescence emission) (CquiOBP2; CquiOBP2) | IC50 (CquiOBP1; [5]) [µM] | Kd (CquiOBP1; [6]) [µM] | Int (fluorescence emission) (CquiOBP1; CquiOBP1) | IC50 (CquiOBP5) [µM] | Kd (CquiOBP5) [µM] | IC50 (CquiOBP2) [µM] | Kd (CquiOBP2) [µM] | IC50 (CquiOBP1) [µM] | Kd (CquiOBP1) [µM] |
| --- | --- | --- | --- | --- | --- | --- | --- | --- | --- | --- | --- | --- | --- | --- | --- |
| COc1ccccc1OC [1,2-Dimethoxybenzene, 1,2-dimethoxybenzene] | > 10 | > 7 | 87 | > 10 | > 2.5 | 91 | > 10 | > 6.3 | 88 | – | – | – | – | – | – |
| CCCCCCO [1-Hexanol, 1-hexanol] | > 10 | > 7 | 88 | > 10 | > 2.5 | 89 | > 10 | > 6.3 | 85 | – | – | – | – | – | – |
| C=CC(O)CCCCC (stereo not drawn) [1-Octen-3-ol, 1-octen-3-ol] | 11.6 | 8.1 | 59 | > 10 | > 2.5 | 93 | > 10 | > 6.3 | 69 | – | – | – | – | – | – |
| C#CC(O)CCCCC (stereo not drawn) [1-Octyn-3-ol, 1-octyn-3-ol] | 12.8 | 8.9 | 62.2 | > 10 | > 2.5 | 92 | > 10 | > 6.3 | 66 | – | – | – | – | – | – |
| OCCc1ccccc1 [2-Phenylethanol, 2-phenylethanol] | > 10 | > 7 | 95 | > 10 | > 2.5 | 92 | > 10 | > 6.3 | 91 | – | – | – | – | – | – |
| Cc1cc(C)cc(O)c1 [3,5-Dimethylphenol] | > 10 | > 7 | 93 | 7.4 | 1.9 | 40 | > 10 | > 6.3 | 84 | – | – | – | – | – | – |
| CCCCCC(O)CC (stereo not drawn) [3-Octanol, 3-octanol] | > 10 | > 7 | 85 | > 10 | > 2.5 | 78 | > 10 | > 6.3 | 87 | – | – | – | – | – | – |
| CCc1ccc(O)cc1 [4-Ethylphenol, 4-ethylphenol] | > 10 | > 7 | 84 | > 10 | > 2.5 | 91 | > 10 | > 6.3 | 85 | – | – | – | – | – | – |
| CC1CCC(O)CC1 (stereo not drawn) [4-Methylcyclohexanol] | > 10 | > 7 | 93 | > 10 | > 2.5 | 88 | > 10 | > 6.3 | 88 | – | – | – | – | – | – |
| Cc1ccc(O)cc1 [4-Methylphenol, 4-methylphenol] | > 10 | > 7 | 90 | > 10 | > 2.5 | 85 | > 10 | > 6.3 | 73 | – | – | – | – | – | – |
| CC/C=C\CCOC(C)=O [(Z)-3-Hexenyl acetate, (Z)-3-hexenyl acetate] | > 10 | > 7 | 83 | > 10 | > 2.5 | 93 | > 10 | > 6.3 | 79 | – | – | – | – | – | – |
| CC(=O)c1ccccc1 [Acetophenone, acetophenone] | > 10 | > 7 | 87 | > 10 | > 2.5 | 92 | > 10 | > 6.3 | 88 | – | – | – | – | – | – |
| O=Cc1ccccc1 [Benzaldehyde, benzaldehyde] | – | – | 93 | – | – | 91 | – | – | 83 | > 10 | > 7 | > 10 | > 2.5 | > 10 | > 6.3 |
| CC12CCC(CC1=O)C2(C)C (stereo not drawn) [Camphor, camphor] | > 10 | > 7 | 89 | > 10 | > 2.5 | 85 | > 10 | > 6.3 | 90 | – | – | – | – | – | – |
| O=C1CCCCC1 [Cyclohexanone, cyclohexanone] | > 10 | > 7 | 82 | > 10 | > 2.5 | 86 | > 10 | > 6.3 | 79 | – | – | – | – | – | – |
| CCN(CC)C(=O)c1cccc(C)c1 [DEET, N,N-diethyl-3-methylbenzamide] | > 10 | > 7 | 92 | > 10 | > 2.5 | 96 | > 10 | > 6.3 | 82 | – | – | – | – | – | – |
| CCOC(=O)Cc1ccccc1 [Ethyl 2-phenylacetate, ethyl 2-phenylacetate] | – | – | 91 | – | – | 87 | – | – | 92 | > 10 | > 7 | > 10 | > 2.5 | > 10 | > 6.3 |
| CC12CCC(CC1)C(C)(C)O2 [Eucalyptol, eucalyptol] | > 10 | > 7 | 73 | > 10 | > 2.5 | 90 | > 10 | > 6.3 | 96 | – | – | – | – | – | – |
| C=CCc1ccc(O)c(OC)c1 [Eugenol, eugenol] | 10.7 | 7.4 | 57.5 | > 10 | > 2.5 | 82 | > 10 | > 6.3 | 72 | – | – | – | – | – | – |
| CC12CCC(C1)C(C)(C)C2=O (stereo not drawn) [Fenchone, fenchone] | > 10 | > 7 | 92 | > 10 | > 2.5 | 87 | > 10 | > 6.3 | 89 | – | – | – | – | – | – |
| CC(=O)OC/C=C(\C)CCC=C(C)C [Geranyl acetate, geranyl acetate] | > 10 | > 7 | 81 | > 10 | > 2.5 | 90 | > 10 | > 6.3 | 94 | – | – | – | – | – | – |
| CCCCN(CCC(=O)OCC)C(C)=O [IR3535, ethyl 3-[acetyl(butyl)amino]propanoate] | > 10 | > 7 | 67 | > 10 | > 2.5 | 90 | > 10 | > 6.3 | 71 | – | – | – | – | – | – |
| C=CC1(C)CCC(C(C)(C)O)O1 (stereo not drawn) [Linalool oxide, linalool oxide] | > 10 | > 7 | 94 | > 10 | > 2.5 | 95 | > 10 | > 6.3 | 92 | – | – | – | – | – | – |
| C=CC(C)(O)CCC=C(C)C (stereo not drawn) [Linalool, linalool] | > 10 | > 7 | 86 | > 10 | > 2.5 | 97 | > 10 | > 6.3 | 91 | – | – | – | – | – | – |
